Laboratory results as given in the supplement of paper PMC10307832.

Tests used:
Test in all cases: relative viability (nuclei count vs DMSO), 5 days (fraction); higher = more cells survive
LCLC-97TM1 = test system: LCLC-97TM1
Method in brief: (§1)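 Dosing by pin tool came one day after lung cancer cell lines were seeded in 1536-well plates, using either one drug or a fixed anchor-drug dose plus five library-drug doses (not always all listed) in √10 steps. After 5 days, nuclei were counted on 4× images. Relative viability is treated-well nuclei count divided by vehicle-well nuclei count, and values are medians of duplicate plates.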

NCI-H1355 = test system: NCI-H1355
Method in brief: as §1

NCI-H1623 = test system: NCI-H1623
Method in brief: as §1

NCI-H1648 = test system: NCI-H1648
Method in brief: as §1

NCI-H1993 = test system: NCI-H1993
Method in brief: as §1

NCI-H23 = test system: NCI-H23
Method in brief: as §1

NCI-H322M = test system: NCI-H322M
Method in brief: as §1

NCI-H596 = test system: NCI-H596
Method in brief: as §1

UMC-11 = test system: UMC-11
Method in brief: as §1

`COc1nc(C)cnc1NS(=O)(=O)c1cccnc1-c1ccc(-c2nnco2)cc1` [Zibotentan] + COc1cccc2cc(-c3nc([C@H]4CC[C@H](C(=O)O)CC4)n4ncnc(N)c34)[nH]c12 [OSI-027] (partner 0.5 µM) gave a relative viability (LCLC-97TM1; first compound 0.08 µM) of 0.602, a relative viability (LCLC-97TM1; first compound 0.253 µM) of 0.72 and a relative viability (LCLC-97TM1; first compound 0.8 µM) of 0.606. It also gave a relative viability (LCLC-97TM1; first compound 2.53 µM) of 0.49, a relative viability (NCI-H1355; first compound 0.08 µM) of 0.375 and a relative viability (NCI-H1355; first compound 0.253 µM) of 0.377. The relative viability (NCI-H1355; first compound 0.8 µM) was 0.458, the relative viability (NCI-H1355; first compound 2.53 µM) was 0.492 and the relative viability (NCI-H1623; first compound 0.08 µM) was 0.423. For the same compound, the relative viability (NCI-H1623; first compound 0.253 µM) was 0.42, the relative viability (NCI-H1623; first compound 0.8 µM) was 0.424 and the relative viability (NCI-H1623; first compound 2.53 µM) was 0.443. It also gave a relative viability (NCI-H1648; first compound 0.08 µM) of 0.255, a relative viability (NCI-H1648; first compound 0.253 µM) of 0.241 and a relative viability (NCI-H1648; first compound 0.8 µM) of 0.256. It also gave a relative viability (NCI-H1648; first compound 2.53 µM) of 0.242, a relative viability (NCI-H1993; first compound 0.08 µM) of 0.522 and a relative viability (NCI-H1993; first compound 0.253 µM) of 0.494. The relative viability (NCI-H1993; first compound 0.8 µM) was 0.468, the relative viability (NCI-H1993; first compound 2.53 µM) was 0.525 and the relative viability (NCI-H23; first compound 0.08 µM) was 0.63. The relative viability (NCI-H23; first compound 0.253 µM) was 0.619, the relative viability (NCI-H23; first compound 0.8 µM) was 0.389 and the relative viability (NCI-H23; first compound 2.53 µM) was 0.743. For the same compound, the relative viability (NCI-H322M; first compound 0.08 µM) was 0.578, the relative viability (NCI-H322M; first compound 0.253 µM) was 0.508 and the relative viability (NCI-H322M; first compound 0.8 µM) was 0.657. The relative viability (NCI-H322M; first compound 2.53 µM) was 0.6, the relative viability (NCI-H596; first compound 0.08 µM) was 0.776 and the relative viability (NCI-H596; first compound 0.253 µM) was 0.643. It also gave a relative viability (NCI-H596; first compound 0.8 µM) of 0.52, a relative viability (NCI-H596; first compound 2.53 µM) of 0.717 and a relative viability (UMC-11; first compound 0.08 µM) of 0.562. For the same compound, the relative viability (UMC-11; first compound 0.253 µM) was 0.462, the relative viability (UMC-11; first compound 0.8 µM) was 0.467 and the relative viability (UMC-11; first compound 2.53 µM) was 0.514.
`O=c1cc(N2CCOCC2)oc2c(-c3cccc4c3sc3ccccc34)cccc12` + Cc1cc(Nc2cc(N3CCN(C)CC3)nc(Sc3ccc(NC(=O)C4CC4)cc3)n2)n[nH]1 [Tozasertib] (partner 0.1 µM) was tested, and the relative viability (LCLC-97TM1; first compound 0.01 µM) was 0.262, the relative viability (LCLC-97TM1; first compound 0.03162 µM) was 0.246 and the relative viability (LCLC-97TM1; first compound 0.1 µM) was 0.28. For the same compound, the relative viability (LCLC-97TM1; first compound 0.3162 µM) was 0.214, the relative viability (LCLC-97TM1; first compound 1 µM) was 0.219 and the relative viability (NCI-H1355; first compound 0.01 µM) was 0.545. It also gave a relative viability (NCI-H1355; first compound 0.03162 µM) of 0.59, a relative viability (NCI-H1355; first compound 0.1 µM) of 0.552 and a relative viability (NCI-H1355; first compound 0.3162 µM) of 0.55. It also gave a relative viability (NCI-H1355; first compound 1 µM) of 0.514, a relative viability (NCI-H1623; first compound 0.01 µM) of 0.472 and a relative viability (NCI-H1623; first compound 0.03162 µM) of 0.4. For the same compound, the relative viability (NCI-H1623; first compound 0.1 µM) was 0.394, the relative viability (NCI-H1623; first compound 0.3162 µM) was 0.411 and the relative viability (NCI-H1623; first compound 1 µM) was 0.343. It also gave a relative viability (NCI-H1648; first compound 0.01 µM) of 0.503, a relative viability (NCI-H1648; first compound 0.03162 µM) of 0.501 and a relative viability (NCI-H1648; first compound 0.1 µM) of 0.547. The relative viability (NCI-H1648; first compound 0.3162 µM) was 0.621, the relative viability (NCI-H1648; first compound 1 µM) was 0.504 and the relative viability (NCI-H1993; first compound 0.01 µM) was 0.554. For the same compound, the relative viability (NCI-H1993; first compound 0.03162 µM) was 0.581, the relative viability (NCI-H1993; first compound 0.1 µM) was 0.569 and the relative viability (NCI-H1993; first compound 0.3162 µM) was 0.566. For the same compound, the relative viability (NCI-H1993; first compound 1 µM) was 0.62, the relative viability (NCI-H23; first compound 0.01 µM) was 0.363 and the relative viability (NCI-H23; first compound 0.03162 µM) was 0.391. It also gave a relative viability (NCI-H23; first compound 0.3162 µM) of 0.31, a relative viability (NCI-H23; first compound 1 µM) of 0.351 and a relative viability (NCI-H322M; first compound 0.01 µM) of 0.49. It also gave a relative viability (NCI-H322M; first compound 0.03162 µM) of 0.464, a relative viability (NCI-H322M; first compound 0.1 µM) of 0.485 and a relative viability (NCI-H322M; first compound 0.3162 µM) of 0.473. It also gave a relative viability (NCI-H322M; first compound 1 µM) of 0.407, a relative viability (NCI-H596; first compound 0.01 µM) of 0.834 and a relative viability (NCI-H596; first compound 0.03162 µM) of 0.939. For the same compound, the relative viability (NCI-H596; first compound 0.1 µM) was 0.921, the relative viability (NCI-H596; first compound 0.3162 µM) was 0.865 and the relative viability (NCI-H596; first compound 1 µM) was 1.03. It also gave a relative viability (UMC-11; first compound 0.01 µM) of 0.194, a relative viability (UMC-11; first compound 0.03162 µM) of 0.208 and a relative viability (UMC-11; first compound 0.1 µM) of 0.202. It also gave a relative viability (UMC-11; first compound 0.3162 µM) of 0.209 and a relative viability (UMC-11; first compound 1 µM) of 0.202.
Work on `CCN(CC)CCCCNc1ncc2cc(-c3cc(OC)cc(OC)c3)c(NC(=O)NC(C)(C)C)nc2n1` + COc1cccc2cc(-c3nc([C@H]4CC[C@H](C(=O)O)CC4)n4ncnc(N)c34)[nH]c12 [OSI-027] (partner 0.5 µM) yielded a relative viability (LCLC-97TM1; first compound 0.01 µM) of 0.553, a relative viability (LCLC-97TM1; first compound 0.03162 µM) of 0.518 and a relative viability (LCLC-97TM1; first compound 0.1 µM) of 0.513. The relative viability (LCLC-97TM1; first compound 0.3162 µM) was 0.619, the relative viability (LCLC-97TM1; first compound 1 µM) was 0.367 and the relative viability (NCI-H1355; first compound 0.01 µM) was 0.405. The relative viability (NCI-H1355; first compound 0.03162 µM) was 0.404, the relative viability (NCI-H1355; first compound 0.1 µM) was 0.417 and the relative viability (NCI-H1355; first compound 0.3162 µM) was 0.45. It also gave a relative viability (NCI-H1355; first compound 1 µM) of 0.367, a relative viability (NCI-H1623; first compound 0.01 µM) of 0.419 and a relative viability (NCI-H1623; first compound 0.03162 µM) of 0.385. It also gave a relative viability (NCI-H1623; first compound 0.1 µM) of 0.381, a relative viability (NCI-H1623; first compound 0.3162 µM) of 0.469 and a relative viability (NCI-H1623; first compound 1 µM) of 0.383. The relative viability (NCI-H1648; first compound 0.01 µM) was 0.311, the relative viability (NCI-H1648; first compound 0.03162 µM) was 0.228 and the relative viability (NCI-H1648; first compound 0.1 µM) was 0.26. It also gave a relative viability (NCI-H1648; first compound 0.3162 µM) of 0.24, a relative viability (NCI-H1648; first compound 1 µM) of 0.243 and a relative viability (NCI-H1993; first compound 0.01 µM) of 0.259. The relative viability (NCI-H1993; first compound 0.03162 µM) was 0.559, the relative viability (NCI-H1993; first compound 0.1 µM) was 0.532 and the relative viability (NCI-H1993; first compound 0.3162 µM) was 0.604. The relative viability (NCI-H1993; first compound 1 µM) was 0.535, the relative viability (NCI-H23; first compound 0.01 µM) was 0.566 and the relative viability (NCI-H23; first compound 0.03162 µM) was 0.679. It also gave a relative viability (NCI-H23; first compound 0.1 µM) of 0.738, a relative viability (NCI-H23; first compound 0.3162 µM) of 0.731 and a relative viability (NCI-H23; first compound 1 µM) of 0.623. For the same compound, the relative viability (NCI-H322M; first compound 0.01 µM) was 0.481, the relative viability (NCI-H322M; first compound 0.03162 µM) was 0.525 and the relative viability (NCI-H322M; first compound 0.1 µM) was 0.531. For the same compound, the relative viability (NCI-H322M; first compound 0.3162 µM) was 0.594, the relative viability (NCI-H322M; first compound 1 µM) was 0.552 and the relative viability (NCI-H596; first compound 0.01 µM) was 0.63. The relative viability (NCI-H596; first compound 0.03162 µM) was 0.74, the relative viability (NCI-H596; first compound 0.1 µM) was 0.758 and the relative viability (NCI-H596; first compound 0.3162 µM) was 0.709. It also gave a relative viability (NCI-H596; first compound 1 µM) of 0.528, a relative viability (UMC-11; first compound 0.01 µM) of 0.508 and a relative viability (UMC-11; first compound 0.03162 µM) of 0.473. The relative viability (UMC-11; first compound 0.1 µM) was 0.481, the relative viability (UMC-11; first compound 0.3162 µM) was 0.485 and the relative viability (UMC-11; first compound 1 µM) was 0.443.
